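96-well plates; 48 h exposure; 5 concentrations. Endpoints by linear interpolation between flanking doses. Not reached: highest tested concentration assigned. At the TGI there is no net growth.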
How the values were obtained:
Experiment in all cases: growth of human tumour cells (NCI), 48 h
[1] = system: 786-0 renal
[2] = system: A498 renal
[3] = system: A549 NSCLC
[4] = system: ACHN renal
[5] = system: CAKI-1 renal
[6] = system: CCRF-CEM leukemia
[7] = system: COLO 205 colon
[8] = system: DLD-1 colon
[9] = system: DMS 114 small cell lung
[10] = system: DMS 273 small cell lung
[11] = system: HCC-2998 colon
[12] = system: HCT-116 colon
[13] = system: HCT-15 colon
[14] = system: HL-60(TB) leukemia
[15] = system: HOP-18 NSCLC
[16] = system: HOP-62 NSCLC
[17] = system: IGROV1 ovarian
[18] = system: K-562 leukemia
[19] = system: KM12 colon
[20] = system: KM20L2 colon
[21] = system: LXFL 529 NSCLC
[22] = system: M14 melanoma
[23] = system: M19-MEL melanoma
[24] = system: MALME-3M melanoma
[25] = system: MOLT-4 leukemia
[26] = system: NCI-H226 lung
[27] = system: NCI-H460 lung
[28] = system: NCI-H522 lung
[29] = system: OVCAR-3 ovarian
[30] = system: OVCAR-4 ovarian
[31] = system: OVCAR-8 ovarian
[32] = system: RPMI-8226 leukemia
[33] = system: RXF 393 renal
[34] = system: SF-268 CNS
[35] = system: SF-539 CNS
[36] = system: SK-MEL-2 melanoma
[37] = system: SK-MEL-28 melanoma
[38] = system: SK-MEL-5 melanoma
[39] = system: SK-OV-3 ovarian
[40] = system: SN12C renal
[41] = system: SNB-19 CNS
[42] = system: SNB-75 CNS
[43] = system: SNB-78 CNS
[44] = system: SR leukemia
[45] = system: SW-620 colon
[46] = system: TK-10 renal
[47] = system: U251 CNS
[48] = system: UACC-257 melanoma
[49] = system: UACC-62 melanoma
[50] = system: UO-31 renal
[51] = system: EKVX NSCLC
[52] = system: HOP-92 NSCLC
[53] = system: HT29 colon
[54] = system: LOX IMVI melanoma
[55] = system: NCI-H23 lung
[56] = system: OVCAR-5 ovarian
[57] = system: SF-295 CNS
[58] = system: XF 498 CNS
[59] = system: BT-549 breast
[60] = system: DU-145 prostate
[61] = system: HS 578T breast
[62] = system: MCF7 breast
[63] = system: MDA-MB-231 breast
[64] = system: MDA-MB-435
[65] = system: MDA-N
[66] = system: NCI/ADR-RES ovarian
[67] = system: PC-3 prostate
[68] = system: T-47D breast

For `CCOC(=O)/C=C1\CCCC12OCCO2`, the TGI [1] was > 100 µM, the TGI [2] was > 100 µM and the TGI [3] was > 100 µM. The TGI [4] was > 100 µM, the TGI [5] was > 100 µM and the TGI [6] was > 100 µM. The TGI [7] was > 100 µM, the TGI [8] was > 100 µM and the TGI [9] was > 100 µM. For the same compound, the TGI [10] was > 100 µM, the TGI [11] was > 100 µM and the TGI [12] was > 100 µM. For the same compound, the TGI [13] was > 100 µM, the TGI [14] was > 100 µM and the TGI [15] was > 100 µM. The TGI [16] was > 100 µM, the TGI [17] was > 100 µM and the TGI [18] was > 100 µM. The TGI [19] was > 100 µM, the TGI [20] was > 100 µM and the TGI [21] was > 100 µM. The TGI [22] was > 100 µM, the TGI [23] was > 100 µM and the TGI [24] was > 100 µM. The TGI [25] was > 100 µM, the TGI [26] was > 100 µM and the TGI [27] was > 100 µM. The TGI [28] was 7.38 µM, the TGI [29] was > 100 µM and the TGI [30] was > 100 µM. The TGI [31] was > 100 µM, the TGI [32] was > 100 µM and the TGI [33] was > 100 µM. For the same compound, the TGI [34] was > 100 µM, the TGI [35] was > 100 µM and the TGI [36] was > 100 µM. The TGI [37] was > 100 µM, the TGI [38] was > 100 µM and the TGI [39] was > 100 µM. For the same compound, the TGI [40] was > 100 µM, the TGI [41] was > 100 µM and the TGI [42] was > 100 µM. The TGI [43] was > 100 µM, the TGI [44] was > 100 µM and the TGI [45] was > 100 µM. For the same compound, the TGI [46] was > 100 µM, the TGI [47] was > 100 µM and the TGI [48] was > 100 µM. For the same compound, the TGI [49] was > 100 µM and the TGI [50] was > 100 µM.
In the case of `CCC1=NC(CO)[C@H](c2ccccc2)O1` (some centres undefined), the TGI [1] is reported as > 100 µM, the TGI [2] is reported as > 100 µM and the TGI [3] is reported as > 100 µM. The TGI [4] was > 100 µM, the TGI [5] was > 100 µM and the TGI [7] was > 100 µM. For the same compound, the TGI [8] was > 100 µM, the TGI [9] was > 100 µM and the TGI [10] was > 100 µM. For the same compound, the TGI [51] was > 100 µM, the TGI [12] was > 100 µM and the TGI [13] was > 100 µM. For the same compound, the TGI [15] was > 100 µM, the TGI [16] was > 100 µM and the TGI [52] was > 100 µM. For the same compound, the TGI [53] was > 100 µM, the TGI [17] was > 100 µM and the TGI [18] was > 100 µM. The TGI [19] was > 100 µM, the TGI [20] was > 100 µM and the TGI [54] was > 100 µM. The TGI [23] was > 100 µM, the TGI [24] was > 100 µM and the TGI [55] was > 100 µM. For the same compound, the TGI [27] was > 100 µM, the TGI [29] was > 100 µM and the TGI [30] was > 100 µM. For the same compound, the TGI [56] was > 100 µM, the TGI [31] was > 100 µM and the TGI [32] was > 100 µM. The TGI [33] was > 100 µM, the TGI [34] was > 100 µM and the TGI [57] was > 100 µM. For the same compound, the TGI [35] was > 100 µM, the TGI [36] was > 100 µM and the TGI [37] was > 100 µM. The TGI [38] was > 100 µM, the TGI [40] was > 100 µM and the TGI [41] was > 100 µM. The TGI [42] was > 100 µM, the TGI [43] was > 100 µM and the TGI [44] was > 100 µM. For the same compound, the TGI [45] was > 100 µM, the TGI [46] was > 100 µM and the TGI [47] was > 100 µM. The TGI [48] was > 100 µM, the TGI [49] was > 100 µM and the TGI [58] was > 100 µM.
In the case of `COc1ccc(N2C(=O)[C@H]3CC(C)c4c([nH]c5ccccc45)[C@H]3C2=O)cc1` (some centres undefined), the TGI [1] is reported as 16.4 µM, the TGI [2] is reported as 77.7 µM and the TGI [3] is reported as > 90.7 µM. The TGI [4] was > 76.8 µM, the TGI [59] was > 80.7 µM and the TGI [5] was 27.3 µM. The TGI [6] was 46.9 µM, the TGI [7] was 9.11 µM and the TGI [8] was > 41.5 µM. The TGI [9] was 7.32 µM, the TGI [10] was 17.2 µM and the TGI [60] was > 45.8 µM. The TGI [51] was > 95 µM, the TGI [11] was 69 µM and the TGI [12] was 30.8 µM. The TGI [13] was > 100 µM, the TGI [14] was 20.1 µM and the TGI [16] was 16.3 µM. It also gave a TGI [52] of 23.3 µM, a TGI [61] of 33.4 µM and a TGI [53] of 21 µM. For the same compound, the TGI [17] was 85.9 µM, the TGI [18] was 20 µM and the TGI [19] was 63.1 µM. The TGI [20] was 12.7 µM, the TGI [54] was 63.8 µM and the TGI [21] was 26.8 µM. It also gave a TGI [22] of 39.9 µM, a TGI [23] of 55.5 µM and a TGI [24] of 33.9 µM. For the same compound, the TGI [62] was > 100 µM, the TGI [63] was > 54.8 µM and the TGI [64] was 2.3 µM. For the same compound, the TGI [65] was 3.4 µM, the TGI [25] was 49.4 µM and the TGI [26] was 38.3 µM. The TGI [55] was 29.4 µM, the TGI [27] was 41.9 µM and the TGI [28] was 4.24 µM. For the same compound, the TGI [66] was 12.4 µM, the TGI [29] was 6.68 µM and the TGI [30] was 30.6 µM. The TGI [56] was > 85.6 µM, the TGI [31] was 55.9 µM and the TGI [67] was 23.6 µM. For the same compound, the TGI [32] was 39.3 µM, the TGI [33] was 9.75 µM and the TGI [34] was > 76.2 µM. The TGI [57] was 7.71 µM, the TGI [35] was 10.5 µM and the TGI [36] was 16.5 µM. For the same compound, the TGI [37] was 57.8 µM, the TGI [38] was 36.6 µM and the TGI [39] was 23.6 µM. For the same compound, the TGI [40] was 83.9 µM, the TGI [41] was > 71.8 µM and the TGI [42] was 12.5 µM. The TGI [43] was > 59.5 µM, the TGI [44] was > 100 µM and the TGI [45] was > 86.8 µM. It also gave a TGI [68] of 68.8 µM, a TGI [46] of 52.7 µM and a TGI [47] of 20.4 µM. The TGI [48] was > 93.9 µM, the TGI [49] was 22.7 µM and the TGI [50] was 83.8 µM. For the same compound, the TGI [58] was 22.4 µM.
`COC(=O)/C(=N\NC(C)(C)C)C(C(=O)C(=O)Nc1cc(C)ccc1C)c1nc2ccccc2[nH]c1=O` (centres undefined) was tested, and the TGI [2] was > 100 µM, the TGI [4] was > 100 µM and the TGI [5] was > 100 µM. The TGI [6] was > 100 µM, the TGI [7] was > 100 µM and the TGI [8] was > 100 µM. For the same compound, the TGI [51] was > 100 µM, the TGI [14] was > 100 µM and the TGI [16] was > 100 µM. For the same compound, the TGI [52] was > 100 µM, the TGI [53] was > 100 µM and the TGI [17] was > 100 µM. The TGI [18] was > 100 µM, the TGI [19] was > 100 µM and the TGI [20] was > 100 µM. For the same compound, the TGI [54] was > 100 µM, the TGI [25] was > 100 µM and the TGI [26] was > 100 µM. The TGI [55] was > 100 µM, the TGI [30] was > 100 µM and the TGI [56] was > 100 µM. The TGI [31] was > 100 µM, the TGI [32] was > 100 µM and the TGI [57] was > 100 µM. The TGI [35] was > 100 µM, the TGI [38] was > 100 µM and the TGI [40] was > 100 µM. The TGI [41] was > 100 µM, the TGI [42] was > 100 µM and the TGI [44] was > 100 µM. The TGI [45] was > 100 µM, the TGI [46] was > 100 µM and the TGI [48] was > 100 µM. For the same compound, the TGI [49] was > 100 µM.

Source: PubChem BioAssay (NCI)
